The source of these data is US4732902A, “Pyrroloisoquinolinyl-dimethyloxoalkyl alkonoates and their use as antipsychotic agents” (Hoffmann-La Roche Inc., priority 1986, dated 1988).

Data set [1] concerns male SPF rats (conditioned avoidance response). As to the kind of experiment: Pole climb avoidance test. It counts as in vivo. The following applies: rat; for ED50 / ED (90-100): im, intramuscular in sesame oil; for ED50: at peak of action, read-out: Blockade of Avoidance Response (BAR), acute ED50; for ED (90-100): dose giving 90-100% block within 24 hours, read-out: Blockade of Avoidance Response (BAR), acute 100% BAR dose. The text has this: In vivo activity. Pole Climb Avoidance Test. In the pole climb test, antipsychotics characteristically disrupt an acquired discrete conditioned avoidance behavior in doses well below those which suppress the response to unconditioned stimuli (escape). The principle of the test procedure was described by Courvoisier S. et al. (Arch. Int. Pharmacodyn 92, 305, 1954), Cook, L. et al. (Ann. N.Y. Acad. Sci. 66, 740-752, 1957) and Pfeiffer, C. et al. (Ann, N.Y. Acad. Sci. 66, 753-764, 1957).
The animals were male SPF rats (stock Fuellinsdorf Albino, outbred) weighing 200-220 g at the end of a discrete conditioned avoidance training.
The test apparatus was a sound-attenuated plexiglass chamber (41×30×30 cm). The floor was a grid consisting of 27 stainless steel rods, to which a scrambled current of 0,8 mA could be delivered by means of a stimulator. The safety area was a vertical pole (4,3 cm diameter, 24 cm long) attached to the top of the chamber. The free lower end of the pole was 6 cm above the grid floor. A buzzer was mounted within the testing enclosure.
The rats were placed in the plexiglass chamber and trained to jump to the pole during a buzzer stimulus (conditioned stimulus CS) lasting 10 sec, in order to avoid an immediately following electrical footshock (unconditioned stimulus US) of 30 sec duration delivered to the grid floor in addition to the CS. If the rat climbed to the pole during the CS or CS plus US, the stimuli (buzzer, footshock) were immediately terminated.
The pole climb response occurring during the CS period is called an avoidance response or conditioned response (CAR or CR), that occurring during exposure to CS plus US escape response of unconditioned response (UER or UR). Following one training trial (exposure to one CS and US respectively) the rats were returned to their home cage. After 15-17 trials rats were jumping during the buzzer stimulation only and were ready for drug testing.
A group of 10 trained rats was used per dose (graded doses, geometric progression: factor 3.16). The test compounds were administered intramuscularly in a sesame oil solution containing 25 mg of compounds per ml of solution.
Dose-effect curves of block of conditioned response (BCR) were constructed by plotting the log dose against the effect (in percent BCR) at the peak of action. From these curves the ED50 for BCR were graphically determined. The potency of a drug for suppressing CR was expressed by the ED50 for BCR. For the evaluation of the long-term effect, a drug dose eliciting a non-supra-maximal 90-100% block of avoidance response within 24 hours was followed up at 24 hour intervals.

A further data set has as its target T1, dopamine receptors (Rattus norvegicus, UniProt P61169).
T1 construct: rat striatal brain homogenates; from tissue; host or cells: rat striatum (brain homogenate)
Kind of data set: 3H-spiroperidol binding test in rat striatal brain homogenates. The following applies: 0.2 nanomolar 3H-spiroperidol, 20 min incubation, no esterases, read-out: 3H-Spiroperidol binding in vitro, IC50. Here is the method: Spiroperidol binding test. In the absence of esterases which trigger the release of the compound of formula II from the compound of formula I, there is only weak activity in the 3H-spiroperiodol binding assay, an in vitro test which measures binding to dopamine receptors. In this test, rat striatal brain homogenates were incubated for 20 min. in the presence of 0.2 nanomolar ^3 H-spiroperidol and varying concentrations of test compounds. The incubations were terminated by rapid filtration through Whatman GF/B filters. followed by 2×5 mL washes with ice-cold assay buffer (50 mM tribase-HCl pH 7.7 which contains fixed concentrations of 0.1% ascorbic acid, 120 mM sodium chloride, 5 mM potassium chloride, 2 mM calcium chloride, and 1 mM magnesium chloride).

Data set [2] is described as follows: Esterase cleavage of prodrug esters by incubation with rat liver homogenate. Format: in vitro ADME. The note with it: liver 9000xg supernatant, rat liver 9,000×g supernatant, pH 7.4, 37° C., 0.5 μmole substrate, read-out: Formation of IIa (piquindone) as % of incubated test compound I in 1 hr. Here is the method: In this test, acetone solutions of the test compounds (0.5 μmole/50 μL) were added to an incubation medium consisting of 2.7 ml 0.1M potassium hydrogenphosphate (pH 7.4) and 0.3 ml rat liver 9,000×g supernatant. The media were then incubated for 1 hour at 37° C. Controls consisted of a sample containing the complete medium and substrate which was not incubated, a sample containing only phosphate buffer and substrate, and a sample containing the complete medium but lacking substrate.
The incubation media were fractionated with a Waters C-18 SEP-PAK. Prior to sample application, the SEP-PAK was washed with 10 ml of methanol and 20 ml of water. After sample application, the SEP-Pak was washed with 10 ml of water and 3 ml of methanol. The amount of the liberated compound of formula II was measured by high pressure liquid chromatography on a 30-cm Waters μ-Bondapak C-18 column, equilibrated with 70:30:1 methanol:water:ammonium hydroxide.

Setting [3] is: single i.m. 100% BAR dose in sesame oil.

SMILES strings stand for the structures. Where “and” joins values, the source holds several entries; their conditions need not be identical. Equal entries are not always repeated.

T1 sequence (P61169 whole entry): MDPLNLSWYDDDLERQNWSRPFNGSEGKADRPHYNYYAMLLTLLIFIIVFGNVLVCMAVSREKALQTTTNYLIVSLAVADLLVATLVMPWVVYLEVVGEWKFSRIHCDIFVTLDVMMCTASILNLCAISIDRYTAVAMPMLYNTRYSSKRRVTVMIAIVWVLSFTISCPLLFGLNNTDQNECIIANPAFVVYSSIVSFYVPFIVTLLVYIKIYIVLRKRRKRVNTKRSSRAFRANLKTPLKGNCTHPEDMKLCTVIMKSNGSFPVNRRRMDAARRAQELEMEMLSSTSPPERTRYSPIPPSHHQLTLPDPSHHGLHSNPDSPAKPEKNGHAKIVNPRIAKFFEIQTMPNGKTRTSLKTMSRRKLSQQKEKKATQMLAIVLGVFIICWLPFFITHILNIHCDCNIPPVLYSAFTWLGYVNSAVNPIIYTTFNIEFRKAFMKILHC

As usually defined, the ED50 is the dose that gives a 50% effect, or the effect in half of the subjects. Broadly, the IC50 is the concentration at which inhibition is half-maximal. Consider `CCc1c2c(n(C(=O)C(C)(C)CCOC(C)=O)c1C)C[C@H]1CCN(C)C[C@@H]1C2=O` (relative stereo) [Ia], for which, in data set [1], the ED50 was determined as 0.6 mg/kg and the ED (90-100) came to 3 mg/kg. Further, in data set [1] (setting [3]), the “Duration: % BAR, Day 1” value was determined as 90% and the “Duration: % BAR, Day 2” value is 50%. Besides, at dopamine receptors, the half-maximal inhibitory concentration (IC50) came out at 250 nM. Further, in data set [2], the metabolised at 1 h was determined as 88 ± 2%.
`CCCCCCCC(=O)OCCC(C)(C)C(=O)n1c(C)c(CC)c2c1C[C@H]1CCN(C)C[C@@H]1C2=O` (relative stereo) [Ib, 2,6-Dimethyl-1-[2,2-dimethyl-4-[(1-oxooctyl)oxy]-1-oxobutyl]-3-ethyl-1,4a,5,6,7,8,8a,9-octahydro-4a,8a-trans-4H-pyrrolo[2,3-g]isoquinolin-4-one]: the half-inhibitory concentration (IC50) at dopamine receptors worked out at 195 nM. For the same compound, in data set [2], the metabolised at 1 h was 104 ± 3.3%.
In the case of `CCCCCCCCCC(=O)OCCC(C)(C)C(=O)n1c(C)c(CC)c2c1C[C@H]1CCN(C)C[C@@H]1C2=O` (relative stereo) [Ic, 2,6-Dimethyl-1-[2,2-dimethyl-4-[(1-oxodecyl)oxy]-1-oxo-butyl]-3-ethyl-1,4a,5,6,7,8,8a,9-octahydro-4a,8a-trans-4H-pyrrolo[2,3-g]isoquinolin-4-one], in data set [1], the ED50 worked out at 3.6 mg/kg and the ED (90-100) amounted to 10 mg/kg. Moreover, in data set [1] (setting [3]), the “Duration: % BAR, Day 1” value stood at 100% and the “Duration: % BAR, Day 2” value is recorded as 100%. Moreover, the “Duration: % BAR, Day 3” value in data set [1] (single i.m. 100% BAR dose in sesame oil, Day 3) was determined as 100%. For the same compound, the “Duration: % BAR, Day 4” value in data set [1] (single i.m. 100% BAR dose in sesame oil, Day 4) was 90%. Moreover, the “Duration: % BAR, Day 5” value in data set [1] (single i.m. 100% BAR dose in sesame oil, Day 5) is listed as 80%. The “Duration: % BAR, Day 6-13” value in data set [1] (single i.m. 100% BAR dose in sesame oil, Days 6-13) was 50-60%. Further, the IC50 at dopamine receptors was 870 nM and 1000 nM. In addition, the metabolised at 1 h in data set [2] was 102%.
As for `CCCCCCCCCCCC(=O)OCCC(C)(C)C(=O)n1c(C)c(CC)c2c1C[C@H]1CCN(C)C[C@@H]1C2=O` (relative stereo) [Id, 2,6-Dimethyl-1-[2,2-dimethyl-4-[(1-oxododecyl)oxy]-1-oxobutyl]-3-ethyl-1,4a,5,6,7,8,8a,9-octahydro-4a,8a-trans-4H-pyrrolo[2,3-g]isoquinolin-4-one], at dopamine receptors, the IC50 worked out at 570 nM. Further, the metabolised at 1 h in data set [2] came out at 77.2 ± 0.8%.
`CCCCCCCCCCCCCCCC(=O)OCCC(C)(C)C(=O)n1c(C)c(CC)c2c1C[C@H]1CCN(C)C[C@@H]1C2=O` (relative stereo) [Ie, 2,6-Dimethyl-1-[2,2-dimethyl-4-[(1-oxohexadecyl)oxy]-1-oxobutyl]-3-ethyl-1,4a,5,6,7,8,8a,9-octahydro-4a,8a-trans-4H-pyrrolo[2,3-g]isoquinolin-4-one]: in data set [1], the ED50 worked out at 17 mg/kg and the ED (90-100) came out at 30 mg/kg. For the same compound, in data set [1] (setting [3]), the “Duration: % BAR, Day 1” value is listed as 100% and the “Duration: % BAR, Day 2” value is 10%. For the same compound, the IC50 on dopamine receptors turned out to be 640 nM. For the same compound, in data set [2], the metabolised at 1 h amounted to 31 ± 1%.
`CCCCCCCCCCCCCCCCCC(=O)OCCC(C)(C)C(=O)n1c(C)c(CC)c2c1C[C@H]1CCN(C)C[C@@H]1C2=O` (relative stereo) [If, 2,6-Dimethyl-1-[2,2-dimethyl-4-[(1-oxooctadecyl)oxy]-1-oxobutyl]-3-ethyl-1,4a,5,6,7,8,8a,9-octahydro-4a,8a-trans-4H-pyrrolo[2,3-g]isoquinolin-4-one]: in data set [1], the ED50 came out at 16.2 mg/kg and the ED (90-100) turned out to be 30 mg/kg. Further, in data set [1] (setting [3]), the “Duration: % BAR, Day 1” value was determined as 100% and the “Duration: % BAR, Day 2” value is reported as 10%. The IC50 on dopamine receptors turned out to be 1000 nM. Further, in data set [2], the metabolised at 1 h came to 12.1 ± 0.4%.
Take `CCCCCCCCCCCCCCCCCCCC(=O)OCCC(C)(C)C(=O)n1c(C)c(CC)c2c1C[C@H]1CCN(C)C[C@@H]1C2=O` (relative stereo) [Ig, 2,6-Dimethyl-1-[2,2-dimethyl-4-[(1-oxoeicosanoyl)oxy]-1-oxobutyl]-3-ethyl-1,4a,5,6,7,8,8a,9-octahydro-4a,8a-trans-4H-pyrrolo[2,3-g]isoquinolin-4-one]: in data set [1], the ED50 was 13.8 mg/kg and the ED (90-100) stood at 30 mg/kg. In data set [1] (setting [3]), the “Duration: % BAR, Day 1” value was 100% and the “Duration: % BAR, Day 2” value came to 10%. Also, the concentration for half-maximal inhibition (IC50) on dopamine receptors was 1000 nM. Moreover, in data set [2], the metabolised at 1 h turned out to be 11.7 ± 0.7%.
